In PubChem BioAssay (NCI):
Several values for one entry are separate records, joined by “and”; a condition that tells them apart may be missing. Identical values can stand only once.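 Protocol summary: plate cells (96-well), add compound at 5 concentrations, incubate 48 h, interpolate endpoints linearly. GI50: concentration for 50% inhibition of growth. TGI: total growth inhibition.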

How the values were obtained:
Test in all cases: NCI-60 cell line screen, 48 h
EKVX NSCLC = tested on: EKVX NSCLC
NCI-H226 lung = tested on: NCI-H226 lung
LOX IMVI melanoma = tested on: LOX IMVI melanoma
SK-MEL-5 melanoma = tested on: SK-MEL-5 melanoma
786-0 renal = tested on: 786-0 renal
UACC-62 melanoma = tested on: UACC-62 melanoma
SNB-75 CNS = tested on: SNB-75 CNS
NCI-H522 lung = tested on: NCI-H522 lung
HOP-62 NSCLC = tested on: HOP-62 NSCLC
MCF7 breast = tested on: MCF7 breast

Compound | GI50 (EKVX NSCLC) | TGI (EKVX NSCLC) | GI50 (NCI-H226 lung) | TGI (NCI-H226 lung) | GI50 (LOX IMVI melanoma) | TGI (LOX IMVI melanoma) | GI50 (SK-MEL-5 melanoma) | TGI (SK-MEL-5 melanoma) | GI50 (786-0 renal) | TGI (786-0 renal) | GI50 (UACC-62 melanoma) | TGI (UACC-62 melanoma) | GI50 (SNB-75 CNS) | TGI (SNB-75 CNS) | GI50 (NCI-H522 lung) | TGI (NCI-H522 lung) | GI50 (HOP-62 NSCLC) | TGI (HOP-62 NSCLC) | GI50 (MCF7 breast) | TGI (MCF7 breast)
Nc1nc2c(c3cnccc13)C(c1ccc(Cl)c(Cl)c1)Cc1cnccc1-2 (centres undefined) | 0.971 µM | 17.5 µM | 1.23 µM | 3.94 µM | 0.293 µM | 11 µM | 0.58 µM | 3.83 µM | 0.565 µM | 3.9 µM | 0.352 µM | 2.44 µM | 0.368 µM | 12.1 µM | 0.249 µM | 0.73 µM | 0.583 µM | 4.99 µM | 0.305 µM | 11.7 µM
COC1N(C2CC(O)C(CO)O2)C(=O)NC(=O)C1(F)Br (centres undefined) | 19.9 µM | 50 µM and > 100 µM | > 88.3 µM | > 100 µM | 4.47 µM | 50 µM and > 100 µM | 38.2 µM | 50 µM and > 89.7 µM | 31.9 µM | 50 µM and > 100 µM | > 50 µM | > 100 µM | 7.44 µM | 50 µM and 81.6 µM | 22.4 µM | 50 µM and > 70 µM | 8.35 µM | 50 µM and > 66.5 µM |  | > 100 µM
Cc1nn(-c2ccc(Cl)cc2)c2ncnc(N/N=C/c3ccccc3O)c12 | 0.96 µM and 0.993 µM | 30.8 µM and > 100 µM | 3.86 µM and 2.55 µM | 40.7 µM and > 29.5 µM | 0.389 µM and 0.251 µM | 11.9 µM and 10.2 µM | 0.728 µM and 0.509 µM | 2.45 µM and 1.47 µM | 0.768 µM and 0.509 µM | 7.55 µM and 5.84 µM | 1.6 µM and 0.91 µM | 19.9 µM and 6.95 µM | 4.03 µM and 0.501 µM | 37.9 µM and 4.49 µM | 0.874 µM and 0.321 µM | > 69.6 µM | 0.538 µM and 0.322 µM | 17.1 µM and 9.11 µM | 0.887 µM and 0.399 µM | > 100 µM
CSC1=Nc2c(c(C)c(C)n2COC(CO)CO)C2=NC(=O)CN12 | > 100 µM | > 100 µM | > 100 µM | > 100 µM | > 100 µM | > 100 µM | > 100 µM | > 100 µM | > 100 µM | > 100 µM | > 100 µM | > 100 µM | 63 µM | > 100 µM | > 100 µM | > 100 µM | > 100 µM | > 100 µM | > 100 µM | > 100 µM
CC(=O)ON1CCCC(P(=O)(OCOC(=O)C(C)(C)C)OCOC(=O)C(C)(C)C)C1=O (centres undefined) | 0.94 µM | 11.1 µM | 0.949 µM | 7.2 µM | 0.827 µM | 15.3 µM | 0.773 µM | 3.04 µM | 0.331 µM | > 23.4 µM | 0.405 µM | 1.74 µM | 3.31 µM | 18.6 µM | 0.506 µM | 5.63 µM | 0.923 µM | 7.53 µM | 0.4 µM | 2 µM
COc1cc2c(N3CCN(C(=O)Nc4ccc(OC(C)C)cc4)CC3)ncnc2cc1OCCCN1CCCCC1 | 28.9 µM | > 100 µM | 15.2 µM | 45.3 µM | 8.15 µM | 23.9 µM | 13.2 µM | 26 µM | 17.6 µM | 37.8 µM | 15.8 µM | 31 µM | 3.29 µM | 26.4 µM | 16.6 µM | 36.1 µM | 14.4 µM | 34.2 µM | 13.4 µM | 36.6 µM
